Values of other authors as cited in patent US8791093B2, “Pharmaceutical delivery systems for treatment of substance abuse and other addictions” (priority 2009, dated 2014).

How the values were obtained:
ALDH-II = biological target: T1, ALDH-II (Homo sapiens, UniProt P00352)
T1 sequence (P00352 1-501): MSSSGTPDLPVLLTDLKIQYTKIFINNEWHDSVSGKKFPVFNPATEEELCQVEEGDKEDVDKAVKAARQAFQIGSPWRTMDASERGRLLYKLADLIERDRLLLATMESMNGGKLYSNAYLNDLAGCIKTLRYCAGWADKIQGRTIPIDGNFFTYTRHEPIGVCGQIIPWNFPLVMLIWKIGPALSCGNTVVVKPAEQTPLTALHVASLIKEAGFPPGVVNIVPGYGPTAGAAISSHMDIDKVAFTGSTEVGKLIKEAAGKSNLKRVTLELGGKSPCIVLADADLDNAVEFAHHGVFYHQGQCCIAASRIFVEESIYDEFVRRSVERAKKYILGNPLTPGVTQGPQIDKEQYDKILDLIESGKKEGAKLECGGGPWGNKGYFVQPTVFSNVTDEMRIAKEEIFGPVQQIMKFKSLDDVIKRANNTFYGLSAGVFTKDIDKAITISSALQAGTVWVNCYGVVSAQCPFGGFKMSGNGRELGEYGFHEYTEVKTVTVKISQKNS

ALDH-I = biological target: T2, ALDH-I (Homo sapiens, UniProt P05091)
T2 sequence (P05091 18-517): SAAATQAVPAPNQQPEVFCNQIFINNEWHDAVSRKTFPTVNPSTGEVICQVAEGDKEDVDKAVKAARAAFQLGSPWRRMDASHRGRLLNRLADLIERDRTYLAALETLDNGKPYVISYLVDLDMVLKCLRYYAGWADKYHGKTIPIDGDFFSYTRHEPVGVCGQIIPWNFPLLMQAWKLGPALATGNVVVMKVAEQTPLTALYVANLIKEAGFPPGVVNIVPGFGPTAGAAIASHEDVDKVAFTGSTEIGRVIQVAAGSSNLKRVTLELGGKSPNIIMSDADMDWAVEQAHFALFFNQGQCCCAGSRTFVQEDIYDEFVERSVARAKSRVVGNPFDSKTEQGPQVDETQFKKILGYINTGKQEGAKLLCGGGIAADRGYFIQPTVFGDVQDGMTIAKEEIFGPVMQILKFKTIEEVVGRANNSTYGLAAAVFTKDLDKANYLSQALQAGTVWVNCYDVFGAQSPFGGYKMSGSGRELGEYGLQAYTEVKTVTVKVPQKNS

inhibition of ALDH-II (ALDH-II): potent irreversible inhibitor
inhibition of ALDH-I (ALDH-I): only slightly
SMILES: CCN(CC)C(=S)SSC(=S)N(CC)CC [Disulfiram, diethylcarbamothioylsulfanyl diethylaminomethanedithioate]
